In PMC10967572, “Induction of Oxidative Stress and Ferroptosis in Triple-Negative Breast Cancer Cells by Niclosamide via Blockade of the Function and Expression of SLC38A5 and SLC7A11” (Antioxidants, 2024):
Structures can show the parent of a compound that is named as a salt. Residues, ends and D or L forms follow the SMILES beside them. *: point of attachment. Cbz = O=C(OCc1ccccc1)*; CH2F = FC*

What was measured:
SLC7A11 = SLC7A11 transport activity (glutamate uptake) after treatment of cells; assay type: cell-based, human; details: MB231, TXBR100 and MB453 cells treated before uptake
Procedure: The transport activity of SLC7A11 was calculated by subtracting the diffusional component from total uptake. […] Confluent cultures were used for uptake measurements.

[1] = system: Nrf2 target genes (SLC7A11, HO-1, GCLC, GCLM); test: qRT-PCR of Nrf2 target genes in TNBC cells; assay type: cell-based, human; details: MB231, TXBR100 and MB453, Se-Met 1 mM, 16 h
Procedure: (§1) Total RNA was extracted from cells using TRIzol Reagent (ThermoFisher Scientific, Waltham, MA, USA) and the RNA was reverse-transcribed using a high-capacity cDNA reverse transcription kit (ThermoFisher Scientific, Waltham, MA, USA) according to the manufacturer’s protocol. Quantitative RT-PCR was performed with Takara Taq Hot Start Version (TaKaRa Biotechnology, Shiga, Japan) or Power SYBR Green PCR master mix (Bio-Rad, Hercules, CA, USA). Primer sequences are shown in Supplemental Table S1. The relative mRNA expression was determined by the 2^−∆∆Ct method. Additionally, 18S was used as a housekeeping gene for normalization.

Nrf2 = Nrf2 expression and subcellular localization (immunostaining, Western blot, qRT-PCR) in TNBC cells; assay type: cell-based, human; details: MB231 and TXBR100; 24 h; Se-Met 250 μM and 1 mM, monomethylfumarate 0.1 mM; immunostaining and Western blot
Procedure: as §1
Cells and tumor tissues were lysed in Pierce™ RIPA buffer (ThermoFisher Scientific, Waltham, MA, USA) supplemented with Halt™ Protease and Phosphatase Inhibitor Cocktail (ThermoFisher Scientific, Waltham, MA, USA). Homogenates were centrifuged, and supernatants were used for protein measurement via Pierce™ BCA Protein Assay Kit (ThermoFisher Scientific, Waltham, MA, USA). […] Western blot samples were prepared in Laemmli sample buffer (Bio-Rad Laboratories, Hercules, CA, USA). They were loaded onto a SDS–PAGE gel and transferred onto a PVDF membrane (Bio-Rad Laboratories, Hercules, CA, USA). The membrane was blocked and antibodies diluted in 5% nonfat dry milk (Bio-Rad Laboratories, Hercules, CA, USA) or in 5% bovine serum albumin (Irvine Scientific, Santa Ana, CA, USA) were used. Protein bands were visualized using Pierce™ ECL Western Blotting Substrate (ThermoFisher Scientific, Waltham, MA, USA) and developed on the autoradiography film (Santa Cruz, Dallas, TX, USA). Primary antibodies were purchased either from Cell Signaling (Danvers, MA, USA) [anti-GPX4 (#52455), anti-FTH (#4393), anti-HSP60 (#12165), anti-phospho-p70S6K (#9205), anti-p70S6K (#2708)] or from Abcam (Waltham, MA, USA) [Nrf2 (#ab62352)]. Secondary antibody Horseradish peroxidase-conjugated goat anti-rabbit IgG (#1706515) was purchased from Bio-Rad Laboratories (Hercules, CA, USA). For quantification of protein levels by the densitometric analysis, the experiment was carried out in triplicate and the data were collected from the resultant three Western blots.

SLC38A5 [2] = biological target: SLC38A5 (Homo sapiens, UniProt Q8WUX1); test: Inhibition of SLC38A5-mediated [3H]-serine uptake in TNBC cells; details: IC50 for the inhibition of SLC38A5-mediated serine uptake, serine 5 μM, LiCl buffer pH 8.5 with 5 mM tryptophan
[3] = system: MB231 cells and TXBR100 cells; test: Lipid radical (ferroptosis) assay with LipiRadical Green; assay type: cell-based, human; details: inhibitor 10 μM with niclosamide 5 μM; MB231 and TXBR100
Procedure: Lipid radical (ferroptosis) assay and iron assay were performed as follows. Cells were cultured on a 25 mm glass coverslip until they reached 60–70% confluency (~48 h). At the time of the experiment, cells were washed with NaCl buffer, pH 7.5 and then incubated with 1 µM of LipiRadical Green (a lipid radical detection reagent, FDV-0042, Funakoshi, Tokyo, Japan) or Ferro-orange (an iron detection probe, F374, Dojindo, Rockville, MD, USA) in NaCl buffer, pH 7.5 for 20 min and then washed with NaCl buffer, pH 7.5. To analyze the effects of modifiers of iron levels and lipid peroxidation, the cells were co-treated with the modifiers and the respective fluorescent probe for 20 min and then washed. The glass coverslip containing the cells was then probed under an inverted microscope. The fluorescence imaging was captured using a Nikon T1-E microscope with A1 confocal super-resolution module (Nikon, Dallas, TX, USA), with a 60× objective, at 488 nm. The images represent a maximum projection intensity derived from a Z-stack. The fluorescence quantification was performed by measuring the corrected total cell fluorescence (CTCF) using Image J (version: 2.14.0/1.54f) and the following formula; CTCF = (integrated density) − (area of cell of interest) × (mean fluorescence of background).

[4] = system: TNBC cells (MB231 and TXBR100); test: MTT cell proliferation / viability assay; assay type: cell-based, human; details: niclosamide 1 μM with inhibitor 10 μM (hydroxychloroquine 25 μM), 48 h
Procedure: Cells were seeded in 96-well plates; after 24 h, niclosamide treatment was initiated. Cells were then cultured for 72 h with fresh medium containing freshly prepared niclosamide supplied every 24 h. Cells were washed with phosphate-buffered saline twice followed by MTT reagent (ATCC). Treatment and lysis of the cells were done as per the manufacturer’s instructions. Absorbance of the lysate was measured at 550 nm. Cell viability assay with various cell-death inhibitors was also performed as described above. Cells were treated with niclosamide (1 µM) along with cell death inhibitors (10 µM), except hydroxychloroquine (25 µM) for 48 h.

[5] = system: MB231 cells and TXBR100 cells; test: Cellular glutathione levels (GSH-Glo assay); assay type: cell-based, human; details: Homo sapiens; buthionine sulfoximine 100 μM; both cell lines (MB231, TXBR100)
Procedure: Control and niclosamide-treated cells were used for measurement of cellular glutathione levels as instructed in the manufacturer’s protocol (GSH-Glo assay, Promega, Madison, WI, USA). The levels of malondialdehyde were measured using lipid peroxidation kit [Lipid Peroxidation (MDA) Assay Kit (MAK085), Millipore-sigma, St. Louis, MO, USA].

SLC38A5 [6] = system: SLC38A5; set-up: method as in PMID 11243884, PMID 37812701; details: cited from earlier work

Chain of SLC38A5 (Homo sapiens, UniProt Q8WUX1) (Q8WUX1 whole entry): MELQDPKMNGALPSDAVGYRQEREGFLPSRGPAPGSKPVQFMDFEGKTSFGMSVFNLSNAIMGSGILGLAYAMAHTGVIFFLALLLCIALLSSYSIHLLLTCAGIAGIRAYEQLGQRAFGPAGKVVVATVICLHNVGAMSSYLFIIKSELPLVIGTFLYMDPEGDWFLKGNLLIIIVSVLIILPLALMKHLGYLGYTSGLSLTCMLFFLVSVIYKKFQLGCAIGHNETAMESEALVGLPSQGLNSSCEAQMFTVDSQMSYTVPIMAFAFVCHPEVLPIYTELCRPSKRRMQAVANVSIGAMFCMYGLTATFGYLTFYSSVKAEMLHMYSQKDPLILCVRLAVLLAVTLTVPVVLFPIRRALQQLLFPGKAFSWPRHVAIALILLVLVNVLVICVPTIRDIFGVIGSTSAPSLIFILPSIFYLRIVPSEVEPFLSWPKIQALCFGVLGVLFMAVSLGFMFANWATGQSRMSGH

| Compound | transport activity of SLC7A11 (glutamate uptake) in treated cells (SLC7A11) | cellular levels and nuclear localization of Nrf2 (Nrf2) | effect of cell death inhibitor on niclosamide-induced increase in lipid radical fluorescence [3] | effect of cell death inhibitor on cell viability in the presence of niclosamide [4] | other results |
| --- | --- | --- | --- | --- | --- |
| C[Se]CC[C@H](N)C(=O)O [Se-Met, seleno-methionine] | increased substantially | increased |  |  | mRNA levels for Nrf2 targets SLC7A11, HO-1, GCLC and GCLM [1]: significant increase; IC50 (SLC38A5 [2]; MB231 cells): 680 µM; IC50 (SLC38A5 [2]; TXBR100 cells): 453 µM |
| COC(=O)C[C@H](NC(=O)[C@H](C)NC(=O)[C@@H](NC(=O)OCc1ccccc1)C(C)C)C(=O)CF [ZVAD-fmk] (Cbz-Val-Ala-Asp(OMe)-CH2F) |  |  | did not have any effect | failed to promote cell viability |  |
| CCCCS(=N)(=O)CCC(N)C(=O)O (centres unmarked) [buthionine sulfoximine] |  |  |  |  | inhibition at 100 µM [5]: ~90% |
| CCOC(=O)c1ccc(NC2CCCCC2)c(N)c1 [ferrostatin 1, ferrostatin-1] |  |  | blocked this increase | improved cell viability |  |
| CCN(CCO)CCCC(C)Nc1ccnc2cc(Cl)ccc12 (centres unmarked) [hydroxychloroquine] |  |  |  | failed to promote cell viability |  |
| CSCC[C@H](N)C(=O)O [methionine] | did not have any effect | did not have any noticeable effect |  |  | IC50 (SLC38A5 [2]; MB231 cells): 518 µM; IC50 (SLC38A5 [2]; TXBR100 cells): 316 µM |
| COC(=O)/C=C/C(=O)O [monomethylfumarate, monomethyl fumarate] | stimulatory effect | increased |  |  |  |
| CN1C(=O)C(Cc2c[nH]c3ccccc23)NC1=S (centres unmarked) [necrostatin, necrostatin-1] |  |  | did not have any effect | failed to promote cell viability |  |
| N[C@@H](CO)C(=O)O [serine] |  |  |  |  | Kt value for SLC38A5-mediated transport (SLC38A5 [6]): 200 to 1300 µM |
